Series [1] has as its system V79 cells. The series is described as follows: Clonogenic survival after combined treatment with 210Po-citrate and drug (cocktails). Format: cell-based, Chinese hamster. The settings on record: for dose dependence of the enhancement of α-particle radiotoxicity: 0.63 μM daunomycin or 2.50 μM doxorubicin with graded 210Po-citrate; for effect of drug on radiotoxicity of 210Po-citrate: concomitant treatment, survival corrected for drug toxicity. An excerpt:
To evaluate cytotoxicity of combined treatment of V79 cells with ^210Po-citrate and daunomycin, or ^210Po-citrate and doxorubicin, the surviving fraction of clonogens was plotted as a function of mean cellular uptake of ^210Po (FIG. 9) and as a function of mean absorbed dose to the cell nucleus. When cells were only treated with ^210Po-citrate, the survival curve can be described by a 1-component exponential function. When cells were concomitantly treated with a single drug concentration and varying amounts of ^210Po-citrate, the dose-response curves followed a 2-component exponential function. The data corresponding to the combined treatments were then corrected for drug toxicity, by dividing the surviving fraction for each datum point by the surviving fraction for drug alone (SF=0.10), and replotted in FIG. 9. Both of the corrected cell survival curves emerged below those obtained for ^210Po-citrate alone.

Series [2] relates to V79 cells. Description: Clonogenic survival assay after single-agent treatment.
Procedure: The surviving fraction SF of cells exposed to the agent was assessed with a clonogenic survival assay and plotted as a function of several different variables including extracellular concentration, <I>net, absorbed dose (Gy), and mean cellular activity (mBq/cell). […] Analogous to the cellular activity and absorbed dose required to achieve 37% survival, a37 and D37, the net mean lethal fluorescence intensity of the drug required to achieve 37% survival, <I>net,37, can be defined similarly and obtained from plots of SF versus <I>net.
A is the intracellular activity of ^210Po-citrate, absorbed dose to the cell nucleus, or drug concentration. Least squares fits of the survival data to this function were performed. The variable b is a fitted parameter.
Cells grown in 225-cm^2 flasks were trypsinized (0.25% trypsin, Gibco, catalog no. 25200-056), and MEMB was added to obtain 2×10^6 cells/mL. Aliquots of 1 mL were placed in Falcon 17×100 mm polypropylene tubes (BD, catalog no. 352018) and placed on a rocker-roller (Thermo Fisher, Fair Lawn, N.J.) for 3 hours at 37° C. with 5% CO2 and 95% air. After this conditioning period, cells were treated with drug or radiochemical. Cell cultures were exposed to radiochemical and drugs for 0.5 and 2.5 h, respectively.
One milliliter of MEMB containing ^210Po-citrate was added to the 1 mL of conditioned V79 cultures (2×10^6 cells/mL), to arrive at a concentration of 0-250 kBq/mL (pH 6.9-7.0). After incubating for 30 min, the cells were washed 2× with MEMB, resuspended in 2 mL of MEMB, and incubated on a rocker-roller for 2.5 h to simulate concomitant drug exposure. The cells were resuspended in a 5 mL of MEMB, passed 5× through a needle, and counted with a Beckman Coulter Model Z2 (Brea, Calif.). Aliquots (500 μL) of the cell suspension were transferred to vials, mixed with 5 mL Ecolume (MP Biomedical, Solon, Ohio, catalog no. 882470), and counted with a Beckman Coulter LS6500, and the mean activity per cell was determined (efficiency, 50% as per prior studies). Aliquots of about 5×10^5 cells were counted in triplicate for ^210Po activity and the cpm ranged from 10^3-10^5. The triplicate measurements kept statistical variations to a minimum. Each sample was serially diluted and plated in Falcon 60×15 mm tissue culture dishes for colony formation. Cultures were incubated for 7 days, and the colonies were fixed in 95% ethanol, stained with 0.01% Amido Black, washed in tap-water, air-dried, and counted.
After conditioning, the cell cultures were treated with daunomycin (Sigma, catalog no. D8809) or doxorubicin (Sigma, catalog no. 44583) to a final concentration of 0-10 μmol/L in MEMB. The tubes were returned to the rocker-roller for 2.5 h. The cells were then processed for colony formation as described above.

For the compound `COc1cccc2c1C(=O)c1c(O)c3c(c(O)c1C2=O)C[C@@](O)(C(C)=O)C[C@@H]3O[C@H]1C[C@H](N)[C@H](O)[C@H](C)O1` [daunomycin], in the series on V79 cells [1], the “dose dependence of the enhancement of α-particle radiotoxicity” value is “independent of radiation absorbed dose beyond about 0.5 Gy” and the “effect of drug on radiotoxicity of 210Po-citrate” value is given as “enhance the radiotoxicity of α-particles”. In the series with V79 cells [2] (V79 cell cultures), the “relative cytotoxicity based on extracellular drug concentration” value is “more cytotoxic than doxorubicin”. For the same compound, in the series on V79 cells [2] (low extracellular concentrations, V79 cells), the “lethality of daunomycin relative to doxorubicin” value is given as approximately 5 ×.
For the compound `COc1cccc2c1C(=O)c1c(O)c3c(c(O)c1C2=O)C[C@@](O)(C(=O)CO)C[C@@H]3O[C@H]1C[C@H](N)[C@H](O)[C@H](C)O1` [doxorubicin], in the series on V79 cells [1], the “dose dependence of the enhancement of α-particle radiotoxicity” value is on record as “dose-dependent increase” and the “effect of drug on radiotoxicity of 210Po-citrate” value is “enhance the radiotoxicity of α-particles”.
Turning to ^210Po-citrate, the “cellular uptake of 210Po at the mean lethal dose” value with V79 cells [2] (37% survival) came out at 0.21 mBq/cell. The “atoms of 210Po per cell at the mean lethal dose” value with V79 cells [2] (corresponds to 0.21 mBq/cell) is “about 3600 atoms”.

The values above are taken from US9623262B2, “Methods and systems for determining the distribution of radiation dose and response” (priority 2013, dated 2017).
